Non-standard residues stand in square brackets, D forms with d. d(aIle) = CC[C@H](C)[C@@H](N)C(=O)O; Nva = CCC[C@H](N)C(=O)O; Sar = CNCC(=O)O
How the values were obtained:
[1] = test system: SMS-KCNR MYCN-amplified NB cell line xenografts; experiment: Neuroblastoma xenograft study, SMS-KCNR model; assay type: in vivo, athymic nude mice; details: SMS-KCNR xenografts about 70 mm^3, 20 days of treatment, each agent alone and in combination
Procedure: (§1) SMS-KCNR, NMB, and NBL-W-S MYCN amplified NB cell lines were used in this study. Cells were grown at 5% CO2 in RPMI 1640 (Invitrogen, Carlsbad, Calif.) supplemented with 10% heat-inactivated fetal bovine serum, L-Glutamine, and antibiotics.
(§2) Lyophilized peptides with the sequence: acetyl-sarcosine-glycine-valine-D-alloisoleucine-threonine-norvaline-isoleucine-arginine-proline-ethylamide were dissolved in sterile 5% dextrose and stored at 4° C.
(§3) Female 4-6 week old homozygous athymic nude mice (Harlan, Madison, Wis.) were inoculated s.c. into the right flank with ^1×107SMS-KCNR or 1.25×10^7 NMB cells. Once tumors were palpable (70 mm^3), mice were treated 1×/day for 20 days with either acetyl-sarcosine-glycine-valine-Dalloisoleucine-threonine-norvaline-isoleucine-arginine-proline-ethylamide (IP, 40 mg/kg), VPA (IP, 400 mg/kg) or acetyl-sarcosine-glycine-valine-D-alloisoleucine-threonine-norvaline-isoleucine-arginine-proline-ethylamide and VPA (in combination). In separate experiments, treatment was started after the animals developed larger tumors>380 mm^3 in size and treatment was continued for 10 days. Tumor volumes were measured twice a week and calculated using the formula: tumor volume =(length X width^2)/2(25). The Student's t-test was used to compare tumor size in the control and treatment groups. Mice were sacrificed after 20 or 10 days of treatment, respectively. […]

[2] = test system: NMB MYCN-amplified NB cell line xenografts; experiment: Neuroblastoma xenograft study, NMB xenografts; assay type: in vivo, athymic nude mice; details: NMB xenografts about 70 mm^3, 20 days of treatment, each agent alone and in combination
Procedure: as §1, §2, §3

[3] = test system: large NB xenografts; details: large xenografts >380 mm^3, after 10 days of treatment; peptide p<0.01, VPA p<0.001; FIG. 1C
Procedure: as §1, §2, §3

| Compound | tumor growth (result in words) [1] | tumor growth (result in words) [2] | tumor volumes reduced [3] [%] |
| --- | --- | --- | --- |
| CCCC(CCC)C(=O)O [VPA, valproic acid] | Tumor growth was inhibited | Tumor growth was inhibited | 44 |
| Ac-[Sar]GV[d(aIle)]T[Nva]IRP-NHEt | Tumor growth was inhibited | Tumor growth was inhibited | 33 |
